*1 amine or outer side, *2 acyl side, *3 side chain or, on linkers, in order; H or OH if unused. Where a SMILES comes first, the peptide text is derived from it. Bridges are numbered along the chain shown (N, C = ends). [ ]: non-standard residue; d: D form. The star is where a group is joined. hTyr(3S-OH,4S-OH,3'-OSO3H) = N[C@H](C(=O)O)[C@H](O)[C@@H](O)c1ccc(O)c(OS(=O)(=O)O)c1; Orn(4R-OH,5R-OH) = O=C([C@H](C[C@@H](O)[C@@H](O)N[*:3])N[*:1])[*:2]; Pro(3S-OH,4S-Me) = C[C@H]1CN[C@H](C(=O)O)[C@H]1O; X1 = CCCCCOc1ccc(-c2cc(-c3ccc(C(=O)*)cc3)no2)cc1; Gln(3R-OH) = NC(=O)C[C@@H](O)[C@H](N)C(=O)O; Hyp = O=C(O)[C@@H]1C[C@@H](O)CN1
Columns and labels:
Hepatotoxicity [1] = system: Hepatotoxicity;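 on HepSE Combined Scores: combined hepatic side effect score as listed in the training data of the Drug Induced Liver Injury Prediction System (DILIps)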; on HepSE hepatic failure: call rule not given here;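 on HepSE hepatitis: Hepatitis-related hepatic side effect score taken from the training data of DILIps, a prediction system for drug-induced liver injury; call rule not given here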;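 on HepSE hepatomegaly: hepatic side effect score for hepatomegaly, taken from the training set of the DILIps drug-induced liver injury prediction system; call rule not given here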;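 on HepSE jaundice: Jaundice-related hepatic side-effect score drawn from the training data of the DILIps (drug-induced liver injury prediction system); call rule not given here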; on HepSE liver disease: call rule not given here;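 on HepSE liver fatty: hepatic side effect score for fatty liver, taken from the DILIps training set for predicting drug-induced liver injury; call rule not given here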
Hepatotoxicity [2] = system: Hepatotoxicity; remark: listed apart in the source;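 on HepSE Combined Scores: combined hepatic side effect score as listed in the training data of the Drug Induced Liver Injury Prediction System (DILIps)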; on HepSE hepatic failure: call rule not given here;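 on HepSE hepatitis: Hepatitis-related hepatic side effect score taken from the training data of DILIps, a prediction system for drug-induced liver injury; call rule not given here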;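 on HepSE hepatomegaly: hepatic side effect score for hepatomegaly, taken from the training set of the DILIps drug-induced liver injury prediction system; call rule not given here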;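 on HepSE jaundice: Jaundice-related hepatic side-effect score drawn from the training data of the DILIps (drug-induced liver injury prediction system); call rule not given here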; on HepSE liver disease: call rule not given here;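 on HepSE liver fatty: hepatic side effect score for fatty liver, taken from the DILIps training set for predicting drug-induced liver injury; call rule not given here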
Hepatotoxicity [3] = system: Hepatotoxicity; remark: listed apart in the source;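 on HepSE Combined Scores: combined hepatic side effect score as listed in the training data of the Drug Induced Liver Injury Prediction System (DILIps)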; on HepSE hepatic failure: call rule not given here;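 on HepSE hepatitis: Hepatitis-related hepatic side effect score taken from the training data of DILIps, a prediction system for drug-induced liver injury; call rule not given here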;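 on HepSE hepatomegaly: hepatic side effect score for hepatomegaly, taken from the training set of the DILIps drug-induced liver injury prediction system; call rule not given here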;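 on HepSE jaundice: Jaundice-related hepatic side-effect score drawn from the training data of the DILIps (drug-induced liver injury prediction system); call rule not given here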; on HepSE liver disease: call rule not given here;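 on HepSE liver fatty: hepatic side effect score for fatty liver, taken from the DILIps training set for predicting drug-induced liver injury; call rule not given here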
Hepatotoxicity [4] = system: Hepatotoxicity; remark: listed apart in the source;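 on HepSE Combined Scores: combined hepatic side effect score as listed in the training data of the Drug Induced Liver Injury Prediction System (DILIps)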; on HepSE hepatic failure: call rule not given here;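 on HepSE hepatitis: Hepatitis-related hepatic side effect score taken from the training data of DILIps, a prediction system for drug-induced liver injury; call rule not given here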;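 on HepSE hepatomegaly: hepatic side effect score for hepatomegaly, taken from the training set of the DILIps drug-induced liver injury prediction system; call rule not given here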;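 on HepSE jaundice: Jaundice-related hepatic side-effect score drawn from the training data of the DILIps (drug-induced liver injury prediction system); call rule not given here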; on HepSE liver disease: call rule not given here;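 on HepSE liver fatty: hepatic side effect score for fatty liver, taken from the DILIps training set for predicting drug-induced liver injury; call rule not given here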
Hepatotoxicity [5] = system: Hepatotoxicity; remark: listed apart in the source; on HepSE hepatic failure: call rule not given here; on HepSE liver disease: call rule not given here
Hepatotoxicity [6] = system: Hepatotoxicity; remark: listed apart in the source; on HepSE liver disease: call rule not given here
Hepatotoxicity [7] = system: Hepatotoxicity; remark: listed apart in the source
Hepatotoxicity [8] = system: Hepatotoxicity; remark: listed apart in the source
Hepatotoxicity [9] = system: Hepatotoxicity; remark: listed apart in the source
Hepatotoxicity [10] = system: Hepatotoxicity; remark: listed apart in the source
Hepatotoxicity [11] = system: Hepatotoxicity; remark: listed apart in the source
Hepatotoxicity [12] = system: Hepatotoxicity; remark: listed apart in the source
Hepatotoxicity [13] = system: Hepatotoxicity; remark: listed apart in the source
Hepatotoxicity [14] = system: Hepatotoxicity; remark: listed apart in the source

| Compound | HepSE_hepatitis (Hepatotoxicity [1]) | HepSE_liver fatty (Hepatotoxicity [2]) | HepSE_hepatomegaly (Hepatotoxicity [3]) | HepSE_liver disease (Hepatotoxicity [4]) | HepSE_jaundice (Hepatotoxicity [5]) | HepSE_Combined Scores (Hepatotoxicity [6]) | HepSE_hepatic failure (Hepatotoxicity [7]) | HepSE_cirrhosis (Hepatotoxicity [8]) | HepSE_cholecystitis (Hepatotoxicity [9]) | HepSE_hepatic necrosis (Hepatotoxicity [10]) | HepSE_cholelithiasis (Hepatotoxicity [11]) | HepSE_liver function tests abnormal (Hepatotoxicity [12]) | HepSE_elevated liver function tests (Hepatotoxicity [13]) | HepSE_bilirubinemia (Hepatotoxicity [14]) | also measured |
| --- | --- | --- | --- | --- | --- | --- | --- | --- | --- | --- | --- | --- | --- | --- | --- |
| CN1CCC[C@H]1c1cccnc1 [NICOTINE] |  |  |  |  |  |  |  |  |  |  |  |  |  |  | HepSE_hepatitis (Hepatotoxicity [1]; Liver): 0; HepSE_liver fatty (Hepatotoxicity [2]; Liver): 0; HepSE_hepatomegaly (Hepatotoxicity [3]; Liver): 0; HepSE_liver disease (Hepatotoxicity [4]; Liver): 0; HepSE_jaundice (Hepatotoxicity [5]; Liver): 0; HepSE_Combined Scores (Hepatotoxicity [6]; Liver): 0; HepSE_hepatic failure (Hepatotoxicity [7]; Liver): 0; HepSE_cirrhosis (Hepatotoxicity [8]; Liver): 0; HepSE_cholecystitis (Hepatotoxicity [9]; Liver): 0; HepSE_hepatic necrosis (Hepatotoxicity [10]; Liver): 0; HepSE_cholelithiasis (Hepatotoxicity [11]; Liver): 0; HepSE_liver function tests abnormal (Hepatotoxicity [12]; Liver): 0; HepSE_elevated liver function tests (Hepatotoxicity [13]; Liver): 0; HepSE_bilirubinemia (Hepatotoxicity [14]; Liver): 0 |
| C[C@]12CC[C@@H]3c4ccc(O)cc4C[C@@H](CCCCCCCCC[S+]([O-])CCCC(F)(F)C(F)(F)F)[C@H]3[C@@H]1CC[C@@H]2O (stereo partly drawn) [FULVESTRANT] | 0 | 0 | 0 | 0 | 0 | 0 | 0 | 0 | 0 | 0 | 0 | 0 | 0 | 0 |  |
| CCCCCOc1ccc(-c2cc(-c3ccc(C(=O)N[C@H]4C[C@@H](O)[C@@H](O)NC(=O)[C@@H]5[C@@H](O)[C@@H](C)CN5C(=O)[C@H]([C@H](O)CC(N)=O)NC(=O)[C@H]([C@H](O)[C@@H](O)c5ccc(O)c(OS(=O)(=O)O)c5)NC(=O)[C@@H]5C[C@@H](O)CN5C(=O)[C@H]([C@@H](C)O)NC4=O)cc3)no2)cc1 [MICAFUNGIN] (X1-[Orn(4R-OH,5R-OH)]T[Hyp][hTyr(3S-OH,4S-OH,3'-OSO3H)][Gln(3R-OH)][Pro(3S-OH,4S-Me)]; lactam 1-C) | 0 | 0 | 1 | 1 | 1 | 6 | 1 | 0 | 0 | 0 | 0 | 1 | 0 | 1 |  |
| COLESEVELAM HYDROCHLORIDE | 0 | 0 | 0 | 0 | 0 | 0 | 0 | 0 | 0 | 0 | 0 | 0 | 0 | 0 |  |
| O=C(O)CCCCCCCC(=O)O [AZELAIC ACID] | 0 | 0 | 0 | 0 | 0 | 0 | 0 | 0 | 0 | 0 | 0 | 0 | 0 | 0 |  |
| CN(C)CCc1c[nH]c2ccc(C[C@H]3COC(=O)N3)cc12 [ZOLMITRIPTAN] | 0 | 0 | 0 | 1 | 1 | 2 | 0 | 0 | 0 | 0 | 0 | 0 | 0 | 0 |  |
| CC(=O)Nc1nnc(S(N)(=O)=O)s1 [ACETAZOLAMIDE] | 0 | 0 | 0 | 0 | 1 | 2 | 0 | 0 | 0 | 1 | 0 | 0 | 0 | 0 |  |
| Brc1c(NC2=NCCN2)ccc2nccnc12 [BRIMONIDINE] |  |  |  |  |  |  |  |  |  |  |  |  |  |  | HepSE_hepatitis (Hepatotoxicity [1]; Liver): 0; HepSE_liver fatty (Hepatotoxicity [2]; Liver): 0; HepSE_hepatomegaly (Hepatotoxicity [3]; Liver): 0; HepSE_liver disease (Hepatotoxicity [4]; Liver): 0; HepSE_jaundice (Hepatotoxicity [5]; Liver): 0; HepSE_Combined Scores (Hepatotoxicity [6]; Liver): 0; HepSE_hepatic failure (Hepatotoxicity [7]; Liver): 0; HepSE_cirrhosis (Hepatotoxicity [8]; Liver): 0; HepSE_cholecystitis (Hepatotoxicity [9]; Liver): 0; HepSE_hepatic necrosis (Hepatotoxicity [10]; Liver): 0; HepSE_cholelithiasis (Hepatotoxicity [11]; Liver): 0; HepSE_liver function tests abnormal (Hepatotoxicity [12]; Liver): 0; HepSE_elevated liver function tests (Hepatotoxicity [13]; Liver): 0; HepSE_bilirubinemia (Hepatotoxicity [14]; Liver): 0 |
| CC[N+](C)(C)Cc1ccccc1Br [BRETYLIUM] | 0 | 0 | 0 | 0 | 0 | 0 | 0 | 0 | 0 | 0 | 0 | 0 | 0 | 0 |  |
| OCCOCCN1CCN(C2=Nc3ccccc3Sc3ccccc32)CC1 [QUETIAPINE] |  |  |  |  |  |  |  |  |  |  |  |  |  |  | HepSE_hepatitis (Hepatotoxicity [1]; Liver): 0; HepSE_liver fatty (Hepatotoxicity [2]; Liver): 0; HepSE_hepatomegaly (Hepatotoxicity [3]; Liver): 0; HepSE_liver disease (Hepatotoxicity [4]; Liver): 0; HepSE_jaundice (Hepatotoxicity [5]; Liver): 0; HepSE_Combined Scores (Hepatotoxicity [6]; Liver): 0; HepSE_hepatic failure (Hepatotoxicity [7]; Liver): 0; HepSE_cirrhosis (Hepatotoxicity [8]; Liver): 0; HepSE_cholecystitis (Hepatotoxicity [9]; Liver): 0; HepSE_hepatic necrosis (Hepatotoxicity [10]; Liver): 0; HepSE_cholelithiasis (Hepatotoxicity [11]; Liver): 0; HepSE_liver function tests abnormal (Hepatotoxicity [12]; Liver): 0; HepSE_elevated liver function tests (Hepatotoxicity [13]; Liver): 0; HepSE_bilirubinemia (Hepatotoxicity [14]; Liver): 0 |
| COc1ccccc1Oc1c(NS(=O)(=O)c2ccc(C(C)(C)C)cc2)nc(-c2ncccn2)nc1OCCO [BOSENTAN] | 1 | 0 | 0 | 0 | 1 | 4 | 1 | 1 | 0 | 0 | 0 | 0 | 0 | 0 |  |
| CO[C@@]1(NC(=O)C2SC(=C(C(N)=O)C(=O)O)S2)C(=O)N2C(C(=O)O)=C(CSc3nnnn3C)CS[C@@H]21 (stereo partly drawn) [CEFOTETAN] | 0 | 0 | 0 | 0 | 0 | 0 | 0 | 0 | 0 | 0 | 0 | 0 | 0 | 0 |  |
| O=C1CC[C@@]2(O)[C@H]3Cc4ccc(O)c5c4[C@@]2(CCN3CC2CC2)[C@H]1O5 [NALTREXONE] | 1 | 0 | 0 | 0 | 0 | 2 | 0 | 0 | 0 | 0 | 1 | 0 | 0 | 0 |  |
| CCOCCn1c(N2CCCN(C)CC2)nc2ccccc21 [EMEDASTINE] | 0 | 0 | 0 | 0 | 0 | 0 | 0 | 0 | 0 | 0 | 0 | 0 | 0 | 0 |  |
| CC[C@H](C)C[C@H](C)CCCCCCCCC(=O)N[C@H]1C[C@@H](O)[C@@H](NCCN)NC(=O)[C@@H]2[C@@H](O)CCN2C(=O)[C@H]([C@H](O)CCN)NC(=O)[C@H]([C@H](O)[C@@H](O)c2ccc(O)cc2)NC(=O)[C@@H]2C[C@@H](O)CN2C(=O)[C@H]([C@@H](C)O)NC1=O [CASPOFUNGIN] | 0 | 0 | 1 | 0 | 1 | 5 | 1 | 0 | 0 | 1 | 0 | 0 | 0 | 1 |  |
| Nc1ccc(O)c(C(=O)O)c1 [MESALAMINE] | 1 | 0 | 0 | 0 | 1 | 8 | 1 | 1 | 1 | 1 | 1 | 0 | 1 | 0 |  |
| O=C([O-])O.[Na+] [SODIUM BICARBONATE] |  |  |  |  |  |  |  |  |  |  |  |  |  |  | HepSE_hepatitis (Hepatotoxicity [1]; Liver): 0; HepSE_liver fatty (Hepatotoxicity [2]; Liver): 0; HepSE_hepatomegaly (Hepatotoxicity [3]; Liver): 0; HepSE_liver disease (Hepatotoxicity [4]; Liver): 0; HepSE_jaundice (Hepatotoxicity [5]; Liver): 0; HepSE_Combined Scores (Hepatotoxicity [6]; Liver): 0; HepSE_hepatic failure (Hepatotoxicity [7]; Liver): 0; HepSE_cirrhosis (Hepatotoxicity [8]; Liver): 0; HepSE_cholecystitis (Hepatotoxicity [9]; Liver): 0; HepSE_hepatic necrosis (Hepatotoxicity [10]; Liver): 0; HepSE_cholelithiasis (Hepatotoxicity [11]; Liver): 0; HepSE_liver function tests abnormal (Hepatotoxicity [12]; Liver): 0; HepSE_elevated liver function tests (Hepatotoxicity [13]; Liver): 0; HepSE_bilirubinemia (Hepatotoxicity [14]; Liver): 0 |

From ChEMBL document CHEMBL1909294, “Translating clinical findings into knowledge in drug safety evaluation--drug induced liver injury prediction system (DILIps)” (PLoS Comput Biol, 2011)
